Data on one compound can be found in patent US9732060B2, “Aminotriazine derivative and pharmaceutical composition comprising the same” (Shionogi & Co., Ltd., priority 2013, dated 2017).

Where two headings read alike, the source gives them in different places.

For orientation: IC50 means the concentration at which inhibition is half-maximal. As usually defined, the fraction unbound is free concentration divided by total concentration. Read a low fraction unbound as extensive binding. In general, clearance refers to the rate of elimination divided by the concentration. Read a low clearance as inefficient removal. Usually AUC stands for concentration integrated over time.

Data set [1] addresses Rat P2X3 receptor (Rattus norvegicus (Rat), UniProt P49654). Description: Evaluation of rat P2X3 receptor inhibitory activity in the presence of rat serum albumin (RSA). The note with it: read-out: ratP2X3 + RSA IC50. Type of data set: cell-based. Here is the method:
Rat P2X3 receptor gene (GenBank accession number NM_031075) was expressed in C6BU-1 cell. The C6BU-1 cells were seeded in a 96-well micro titer plate at a concentration of 2500 cells/well and cultured in the medium (7.0% fetal bovine serum, 7.0% horse serum, and 1% antibiotic and antifungal in DMEM) for one day at 37° C. under 5% carbon dioxide atmosphere. The plasmid was transfected into the cells using transfection reagent FuGENE6 (Promega). The transfected cells were cultured in the medium for one day at 37° C. under 5% carbon dioxide atmosphere. The medium was replaced with 4 μM Fluo-4-AM solution (pH 7.5) containing 20 mM HEPES, 137 mM NaCl, 5.27 mM KCl, 0.9 mM MgCl2, 1.26 mM CaCl2, 5.6 mM D-glucose, 2.5 mM probenecid, 10% RSA, and 0.08% Pluronic F-127, and incubated at 37° C. under 5% dioxide carbon atmosphere for one hour. The plate was washed with washing buffer (20 mM HEPES, 137 mM NaCl, 5.27 mM KCl, 0.9 mM MgCl2, 1.26 mM CaCl2, 5.6 mM D-glucose, 2.5 mM probenecid, pH 7.5), and each well was added with 40 μL of this buffer. The plate was placed in High-Throughput Screening System FDSS 3000 (Hamamatsu Photonics K.K.). Measurement of fluorescence intensity by FDSS 3000 was started, and 40 μL of DMSO solutions containing 1% RSA (final concentrations) and different concentrations of the test compound as prepared by dilution with dilution buffer (20 mM HEPES, 137 mM NaCl, 5.27 mM KCl, 0.9 mM MgCl2, 1.26 mM CaCl2, 5.6 mM D-glucose, 2.5 mM probenecid, 0.1% Pluronic F-127, pH 7.5) were dispensed to each well through the built-in automatic dispenser. Five minutes after, 50 nM ATP solution (50 μL) prepared by dilution with the dilution buffer was dispensed through the built-in automatic dispenser, and the measurement of fluorescence intensity was continued for 4 min. For each well, the specific maximum fluorescence intensity was calculated as the ratio of the maximum fluorescence intensity after addition of the ATP solution to the fluorescence intensity at the starting of the measurement. […] FDSS software (Hamamatsu Photonics K.K.) was used for calculation of the specific maximum fluorescence intensity. IC50 was calculated using Microsoft Excel (Microsoft Corporation) and XLfit (idbs Ltd.).

The nature of data set [2]: Protein binding test (equilibrium dialysis, unbound fraction in serum). The format is in vitro ADME. To be noted: 37° C. Here is the method: The unbound fraction of the present compound in serum was measured using serum of various species.
The reactive conditions are as follows: Evaluation method, Equilibrium dialysis; Reaction time, 24 hours; Reaction temperature, 37° C.; Concentration of the present compound, 2 μg/mL
The test solution was added to each serum and the mixture was agitated to prepare the serum samples at the concentration mentioned above. Each serum sample was added into one side of the cell and phosphate buffered saline (PBS) was added into the other side to perform equilibrium dialysis at 37° C. for 24 hours. Then, the concentration of the compounds in the samples that were obtained from both sides was measured by LC/MS/MS.
The ratio of PBS concentration to serum concentration is expressed as unbound fraction (fu),
(In equilibrium dialysis only unbound substance equilibrates across the membrane.)

A short description of data set [3]: Pharmacokinetic test (BA, CLtot). The format is in vivo. The note with it: rat, plasma, SD rats. Here is the method: • (1) Animals: SD rats were used • (2) Breeding conditions: SD rats were allowed to freely take solid food and sterilized tap water. • (3) Dose and grouping: orally or intravenously administered at a predetermined dose; grouping was as follows (Dose depends on the compound)
Oral administration: 1 mg/kg (n=2)
The total body clearance (CLtot) was calculated by dividing the dose by the AUC of the intravenous administration group.

Data set [4] in a line: Solubility test (1% DMSO, artificial intestinal juice pH 6.8). Type of data set: physicochemical. The note with it: artificial intestinal juice pH 6.8 with 1% DMSO, 25 °C, fassgf or other biorelevant, kinetic from dmso stock, artificial intestinal juice pH 6.8, 25 degrees Celsius, read-out: Solubulity.

Rat P2X3 receptor, sequence (P49654 whole entry): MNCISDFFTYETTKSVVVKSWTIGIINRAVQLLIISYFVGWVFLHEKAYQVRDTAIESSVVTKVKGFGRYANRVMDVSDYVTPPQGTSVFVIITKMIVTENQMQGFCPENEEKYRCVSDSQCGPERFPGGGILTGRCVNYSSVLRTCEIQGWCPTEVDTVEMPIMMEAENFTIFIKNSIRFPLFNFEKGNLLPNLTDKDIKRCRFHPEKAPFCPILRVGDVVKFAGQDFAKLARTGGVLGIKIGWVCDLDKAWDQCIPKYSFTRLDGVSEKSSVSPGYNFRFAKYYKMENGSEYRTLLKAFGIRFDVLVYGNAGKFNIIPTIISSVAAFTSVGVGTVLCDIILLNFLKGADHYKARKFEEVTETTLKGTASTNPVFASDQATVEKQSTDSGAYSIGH

On to `Cc1ccc(Cn2c(=O)n(C[C@H](C)C(=O)O)c(=O)[nH]/c2=N\c2ccc(Oc3ccc(F)cn3)cc2)cc1` [Compound I-040], for which, in data set [1], the IC50 was found to be 9 nM. The compound further displayed a fraction unbound at 24 h, 2 μg/mL in data set [2] of 0.035. In addition, the clearance in data set [3] (intravenous administration 0.5 mg/kg) was determined as 28.6 mL/min/kg. For the same compound, the AUC turned out to be 291 ng·h/mL in data set [3] (intravenous administration 0.5 mg/kg, read-out: AUC (iv)) and 410 ng·h/mL in data set [3] (oral administration 1 mg/kg, read-out: AUC (po)). Moreover, the solubility at 18 h in data set [4] is over 50 µM.
